This is an account of results in ChEMBL document CHEMBL1130742, “Inhibition of thermolysin with nitrone-bearing substrate analogs: a new type of thermolysin inhibitors” (Bioorg Med Chem Lett, 1998).

The target in the experiment is T1, Thermolysin (Bacillus thermoproteolyticus, UniProt P00800).
T1 sequence (P00800 whole entry): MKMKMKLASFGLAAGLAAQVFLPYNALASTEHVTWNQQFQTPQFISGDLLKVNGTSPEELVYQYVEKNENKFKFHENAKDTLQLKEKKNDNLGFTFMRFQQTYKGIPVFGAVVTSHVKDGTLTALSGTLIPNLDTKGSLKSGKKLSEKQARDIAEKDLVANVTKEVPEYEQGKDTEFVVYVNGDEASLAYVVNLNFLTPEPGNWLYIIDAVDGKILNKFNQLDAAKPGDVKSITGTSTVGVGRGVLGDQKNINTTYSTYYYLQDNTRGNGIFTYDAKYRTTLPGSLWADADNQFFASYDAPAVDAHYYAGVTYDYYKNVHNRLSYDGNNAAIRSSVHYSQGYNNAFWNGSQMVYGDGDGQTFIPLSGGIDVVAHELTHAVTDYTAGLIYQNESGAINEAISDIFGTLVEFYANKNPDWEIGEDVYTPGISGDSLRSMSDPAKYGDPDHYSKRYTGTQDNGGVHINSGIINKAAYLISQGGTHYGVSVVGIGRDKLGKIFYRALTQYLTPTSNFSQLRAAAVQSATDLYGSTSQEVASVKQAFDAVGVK
The experiment is described as follows: Inhibitory activity against thermolysin using 2-furylacryloyl-Gly-Leu-NH2 as substrate at pH 7.2.
For orientation: Ki means a measure of affinity in units of concentration, obtained from inhibition or displacement. `COC(=O)C(Cc1ccccc1)/[N+]([O-])=C/c1ccccc1` (stereo not drawn) registered a Ki of 1910 µM.

In turn, `NC(=O)C(/C=[N+](\[O-])Cc1ccccc1)Cc1ccccc1` (stereo not drawn) gave a Ki of 40 µM. As for `NC(=O)C(Cc1ccccc1)/[N+]([O-])=C/c1ccccc1` (stereo not drawn), the Ki turned out to be 774 µM. Molecule `COC(=O)C(Cc1ccccc1)C/[N+]([O-])=C/c1ccccc1` (stereo not drawn) showed an inhibitory constant (Ki) of 244 µM. Molecule `O=CN(O)CC(Cc1ccccc1)C(=O)NCC(=O)O` (stereo not drawn) returned an inhibition constant (Ki) of 34 µM. With `O=C(O)CNC(=O)C(CC(=O)O)Cc1ccccc1` (stereo not drawn) the figure was 340 µM. `O=C(O)CNC(=O)C(/C=[N+](\[O-])Cc1ccccc1)Cc1ccccc1` (stereo not drawn) registered an inhibition constant (Ki) of 54 µM. Then `COC(=O)C(/C=[N+](\[O-])Cc1ccccc1)Cc1ccccc1` (stereo not drawn), with 82 µM.
